Legend:
[1] = tested on: ENR+CD organoids (ISC to Paneth cell differentiation); test: Primary screen: basal (non-stimulated) lysozyme secretion LYZ.NS, 2.5-D 384-well ENR+CD organoid differentiation; format: cell-based, mouse; conditions: primary screen; for Z.LYZ.NS: standard z score
Text: (§1) High-throughput screening.

[2] = tested on: ENR+CD organoids (ISC to Paneth cell differentiation); test: Primary screen: CCh-stimulated lysozyme secretion LYZ.S, 2.5-D 384-well ENR+CD organoid differentiation; format: cell-based, mouse; conditions: primary screen
Text: as §1

[3] = tested on: ENR+CD organoids; test: Primary screen: ATP (CellTiter-Glo 3D, CTG) cell number/viability, 2.5-D 384-well ENR+CD organoids; conditions: primary screen; for Z.CTG: standard z score;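 as to all read-outs here: compounds given at plating and again on day 3 over a 6-day differentiation from ENR+CV stem-cell-enriched precursors, ATP measured on day 6, plate median as control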
[4] = dose 0.08 uM, FC relative to plate median
[5] = dose 0.40 uM, FC relative to plate median
[6] = dose 2.00 uM, FC relative to plate median
[7] = dose 10.00 uM, FC relative to plate median

Structure (SMILES)	Dose.FC.LYZ.NS [1, 4]	Z.LYZ.NS ([1]; dose 0.08 uM)	Dose.FC.LYZ.S [2, 4]	Dose.FC.CTG [3, 4]	Z.CTG ([3]; dose 0.08 uM)	Z.LYZ.NS (standard z score) ([1]; dose 0.08 uM)	Dose.FC.LYZ.NS ([1]; dose 0.40 uM)	Z.LYZ.NS (standard z score) ([1]; dose 0.40 uM)	Dose.FC.LYZ.NS ([1]; dose 2.00 uM)	Z.LYZ.NS (standard z score) ([1]; dose 2.00 uM)	Dose.FC.LYZ.NS ([1]; dose 10.00 uM)	Z.LYZ.NS (standard z score) ([1]; dose 10.00 uM)	Dose.FC.LYZ.S ([2]; dose 0.40 uM)	Dose.FC.LYZ.S ([2]; dose 2.00 uM)	Dose.FC.LYZ.S ([2]; dose 10.00 uM)	Z.CTG (standard z score) ([3]; dose 0.08 uM)	Dose.FC.CTG ([3]; dose 0.40 uM)	Z.CTG (standard z score) ([3]; dose 0.40 uM)	Z.CTG (standard z score) ([3]; dose 2.00 uM)	Z.CTG (standard z score) ([3]; dose 10.00 uM)	further results
Cc1ccc(S(=O)(=O)Cc2nc(-c3ccc(C(=O)NCc4cccnc4)cc3)oc2C)cc1 [STF-118804]	−0.155 log2 fold change	−1.349	−0.257 log2 fold change	−0.151 log2 fold change	−0.360																Dose.FC.LYZ.NS [1, 5]: −0.210 log2 fold change; Z.LYZ.NS ([1]; dose 0.40 uM): −1.824; Dose.FC.LYZ.NS [1, 6]: −0.172 log2 fold change; Z.LYZ.NS ([1]; dose 2.00 uM): −1.502; Dose.FC.LYZ.NS [1, 7]: −0.177 log2 fold change; Z.LYZ.NS ([1]; dose 10.00 uM): −1.541; Dose.FC.LYZ.S [2, 5]: −0.212 log2 fold change; Dose.FC.LYZ.S [2, 6]: −0.271 log2 fold change; Dose.FC.LYZ.S [2, 7]: −0.300 log2 fold change; Dose.FC.CTG [3, 5]: −1.401 log2 fold change; Z.CTG ([3]; dose 0.40 uM): −3.346; Dose.FC.CTG [3, 6]: −0.916 log2 fold change; Z.CTG ([3]; dose 2.00 uM): −2.189; Dose.FC.CTG [3, 7]: −1.338 log2 fold change; Z.CTG ([3]; dose 10.00 uM): −3.195
Cc1cc(Nc2cc(N3CCN(C)CC3)nc(Sc3ccc(NC(=O)C4CC4)cc3)n2)n[nH]1 [VX-680 (Tozasertib, MK-0457)]						−0.371	−0.151 log2 fold change	−1.317	−0.166 log2 fold change	−1.450	−0.238 log2 fold change	−2.069	−0.245 log2 fold change	−0.308 log2 fold change	−0.342 log2 fold change	−0.359	−0.596 log2 fold change	−1.425	−1.686	−2.291	Dose.FC.LYZ.NS ([1]; dose 0.08 uM): −0.043 log2 fold change; Dose.FC.LYZ.S ([2]; dose 0.08 uM): −0.078 log2 fold change; Dose.FC.CTG ([3]; dose 0.08 uM): −0.150 log2 fold change; Dose.FC.CTG ([3]; dose 2.00 uM): −0.706 log2 fold change; Dose.FC.CTG ([3]; dose 10.00 uM): −0.959 log2 fold change
Cc1noc(-c2ccc(CSCCC(=O)O)cc2)c1NC(=O)OC(C)c1ccccc1Cl (stereo not shown) [Ki16425]						0.005		1.017		−0.069		−0.327				−0.121		−0.005	−0.185	−0.394	Dose.FC.LYZ.NS (log2 fold change) ([1]; dose 0.08 uM): 0.001; Dose.FC.LYZ.NS (log2 fold change) ([1]; dose 0.40 uM): 0.117; Dose.FC.LYZ.NS (log2 fold change) ([1]; dose 2.00 uM): −0.008; Dose.FC.LYZ.NS (log2 fold change) ([1]; dose 10.00 uM): −0.038; Dose.FC.LYZ.S (log2 fold change) ([2]; dose 0.08 uM): 0.022; Dose.FC.LYZ.S (log2 fold change) ([2]; dose 0.40 uM): 0.114; Dose.FC.LYZ.S (log2 fold change) ([2]; dose 2.00 uM): −0.021; Dose.FC.LYZ.S (log2 fold change) ([2]; dose 10.00 uM): −0.071; Dose.FC.CTG (log2 fold change) ([3]; dose 0.08 uM): −0.051; Dose.FC.CTG (log2 fold change) ([3]; dose 0.40 uM): −0.002; Dose.FC.CTG (log2 fold change) ([3]; dose 2.00 uM): −0.078; Dose.FC.CTG (log2 fold change) ([3]; dose 10.00 uM): −0.165
CO[C@H]1C[C@@H]2CC[C@@H](C)[C@@](O)(O2)C(=O)C(=O)N2CCCC[C@H]2C(=O)O[C@H]([C@H](C)C[C@@H]2CC[C@@H](OC(=O)C(C)(CO)CO)[C@H](OC)C2)CC(=O)[C@H](C)/C=C(\C)[C@@H](O)[C@@H](OC)C(=O)[C@H](C)C[C@H](C)/C=C/C=C/C=C/1C [Temsirolimus (CCI-779, NSC 683864)]	0.091 log2 fold change	0.790	0.082 log2 fold change	0.514 log2 fold change	1.228		0.088 log2 fold change	0.763	0.172 log2 fold change	1.494	0.119 log2 fold change	1.035	0.152 log2 fold change	0.132 log2 fold change	0.153 log2 fold change		0.583 log2 fold change	1.393	1.382	0.478	Dose.FC.CTG ([3]; dose 2.00 uM): 0.578 log2 fold change; Dose.FC.CTG ([3]; dose 10.00 uM): 0.200 log2 fold change
COc1ccc2c(c1)c(C1=C(c3c[nH]c4ccccc34)C(=O)NC1=O)cn2CCCN(C)C [Go 6983]						−0.046		0.114		0.791		−0.798				0.050		−0.085	0.138	−0.433	Dose.FC.LYZ.NS (log2 fold change) ([1]; dose 0.08 uM): −0.005; Dose.FC.LYZ.NS (log2 fold change) ([1]; dose 0.40 uM): 0.013; Dose.FC.LYZ.NS (log2 fold change) ([1]; dose 2.00 uM): 0.091; Dose.FC.LYZ.NS (log2 fold change) ([1]; dose 10.00 uM): −0.092; Dose.FC.LYZ.S (log2 fold change) ([2]; dose 0.08 uM): 0.021; Dose.FC.LYZ.S (log2 fold change) ([2]; dose 0.40 uM): 0.007; Dose.FC.LYZ.S (log2 fold change) ([2]; dose 2.00 uM): −0.010; Dose.FC.LYZ.S (log2 fold change) ([2]; dose 10.00 uM): −0.073; Dose.FC.CTG (log2 fold change) ([3]; dose 0.08 uM): 0.021; Dose.FC.CTG (log2 fold change) ([3]; dose 0.40 uM): −0.036; Dose.FC.CTG (log2 fold change) ([3]; dose 2.00 uM): 0.058; Dose.FC.CTG (log2 fold change) ([3]; dose 10.00 uM): −0.181

— patent publication US20220323406A1, “METHODS AND COMPOSITIONS FOR DIFFERENTIATING STEM CELLS” (Massachusetts Institute of Technology, priority 2019, published 2022)
